Test results taken from patent US4539329A, “7'-Trifluoromethyl-spiro[imidazolidine-4,3'-indoline]-2,2',5-triones as aldose reductase inhibitors” (Imperial Chemical Industries, plc, priority 1982, dated 1985).

Biological target: T1, aldose reductase (Bos taurus, UniProt P16116)
T1 construct: purified aldose reductase is isolated in known manner from bovine lenses; from tissue; host or cells: bovine lens
Experiment: in vitro inhibition of purified aldose reductase from bovine lenses (reduction of glucose to sorbitol, spectrophotometric)
Assay type: biochemical
Details: aldose reductase preparation obtained from bovine lenses; read-out: concentration producing a 50% reduction in the conversion of glucose to sorbitol
Description: Thus, purified aldose reductase is isolated in known manner from bovine lenses. The percentage inhibition of this enzyme's ability in vitro to reduce aldoses to polyhydric alcohols, and particularly to reduce glucose to sorbitol, caused by a test compound is then determined using standard spectrophotometric methods. In this test the compounds of formula I in general show significant inhibition of the enzyme aldose reductase at a concentration of about 10^-8 M.

IC50: 10.5 nM
Compound: O=C1NC(=O)C2(N1)C(=O)N(Cc1ccc(Br)cc1F)c1c(C(F)(F)F)cccc12 (racemic) [A, 1'-(4-bromo-2-fluorobenzyl)-7'-(trifluoromethyl)-spiro[imidazolidine-4,3'-indoline]-2,2',5-trione]
